The record followed here is publication PMC11897524 (Frontiers in Pharmacology, 2025).

For one experiment, the target named is BRD2 (Homo sapiens, UniProt P25440). The experiment can be described thus: Binding affinity to BET and STAT family members.
Another experiment addresses STAT2 (Homo sapiens, UniProt P52630). The experiment in a line: Binding affinity to BET and STAT family members.
The next experiment concerns the target STAT5a (Homo sapiens, UniProt P42229). The experiment in a line: Binding affinity to BET and STAT family members.
Another experiment deals with CAKI-2 cells. The experiment in a line: MTT cytotoxicity assay. The class given is cell-based, human. As for the experimental part:
(§1) Human normal renal cortical proximal tubular epithelial cell line HK-2 and human renal carcinoma cell lines CAKI-2, SLR-23, 769-P, A704 and RCC4 were previously purchased from the American Type Culture Collection (ATCC, Manassas, VA, USA) or the European Collection of Cell Cultures (ECACC, Salisbury, United Kingdom). HK2, A704, and RCC4 cells were maintained in high glucose DMEM supplemented with 10% FBS and 1% penicillin/streptomycin. SLR-23 and […] cells were cultured in RPMI-1640 medium with 10% FBS and 1% penicillin/streptomycin. CAKI-2 cells were maintained in McCoy’s 5A medium supplemented with 10% FBS and 1% penicillin/streptomycin. All the cell lines were cultured at 37°C in a humidified atmosphere of 5% CO2 and 95% air.
(§2) The effect of hit compounds on cytotoxicity was determined as previously reported ([Ding et al., 2020]). In brief, cells treated with the tested compounds were added with MTT reagent to form formazan crystals, and then the optical density (OD) values at 570 nm were determined after the crystals were dissolved in DMSO. […] Next, the values of IC50 of the selected compounds against more RCC cell lines were determined. The 5 × 10^3 cells in 100 μL culture medium were injected into each well of a 96-well plate and cultured overnight. Add different concentrations of compounds and incubate for 48 h. Then 100 μL of MTT (0.5 mg/mL) solution was added to the 96-well plate and maintained at 37°C for 4 h. Finally, 200 μL of DMSO was added and shaken for 10 min. The OD values at 570 nm were determined by a Synergy 4 microplate reader.

Another experiment relates to 769-P cells. The experiment can be described thus: MTT cytotoxicity assay. It counts as cell-based. The note with it: Homo sapiens, cell growth, 48 h treatment, read-out: IC50 (μM) ± SD 769-P. On the procedure: as §1, §2
Background: Formazan colour is commonly taken as a measure of viable cells.

In another experiment the test system is A704 cells. The experiment can be described thus: MTT cytotoxicity assay. It counts as cell-based. Conditions: Homo sapiens, cell growth, 48 h treatment, read-out: IC50 (μM) ± SD A704. On the procedure:
as §1, §2

Experiment [1] deals with HK-2 normal renal cortical proximal tubular epithelial cells. The experiment in a line: MTT cytotoxicity assay. The class given is cell-based. The note with it: Homo sapiens, Epithelial cell, normal cell line, 48 h treatment, read-out: IC50 (μM) ± SD HK-2. As for the experimental part: as §1, §2
In another experiment the test system is RCC4 cells. The experiment can be described thus: MTT cytotoxicity assay. The note with it: Homo sapiens, cell growth, 48 h treatment, read-out: IC50 (μM) ± SD RCC4. The class given is cell-based. On the procedure: as §1, §2
The next experiment relates to SLR-23 cells. The experiment can be described thus: MTT cytotoxicity assay. It counts as cell-based. Conditions: Homo sapiens, cell growth, 48 h treatment, read-out: IC50 (μM) ± SD SLR-23. As for the experimental part:
as §1, §2

A further experiment has as its system PBMCs. The experiment can be described thus: MTT cytotoxicity assay. Conditions: PBMC, 48 h treatment, read-out: IC50 (μM) ± SD PBMCs. The class given is cell-based. As for the experimental part: as §2
The next experiment deals with CAKI-2 xenograft tumors. The experiment in a line: CAKI-2 cell-derived xenograft model. The class given is in vivo, BALB/c nude mice. Conditions: 10 mg/kg intraperitoneally every 12 h, nude mice. On the procedure:
To further investigate the in vivo effects of BST-4, 6–8 weeks male BALB/c nude mice were obtained by Changzhou Cavens Experimental Animal Co., Ltd. (Changzhou, China). The mice were acclimatized to the laboratory environment for a week before the experiment. The housing conditions were maintained at a temperature of 22°C ± 2°C, a relative humidity of 50%–60%, and a 12-h light/dark cycle. 0.1 mL of CAKI-2cell suspension (1 × 10⁶ cells) was subcutaneously injected into the right flank of each mouse. […] The vehicle group was injected with a vehicle solution consisting of 5% DMSO and PBS. The tumor volume of mice was measured every 2 days and calculated according to the formula: (c × c × d)/2, where c and d represent the minimum diameter and maximum diameter, respectively. All animal experiments were performed and approved by the Ethics Committee of China Pharmaceutical University.

Experiment [2] relates to panel of 76 human kinases. The experiment in a line: SelectScreen kinase selectivity panel. It counts as biochemical. As for the experimental part:
The kinase selectivity profile of BST-4 was performed by the SelectScreen kinase profiling service (Thermo Fisher Scientific). Kinase selectivity assay was performed using Z′-LYTE ™ screening protocol kit. Briefly, the test compounds were screened in 1% DMSO (final). For 10-point titrations, perform a 3-fold dilution starting at a starting concentration of 50 µM. Then 2.5 µL 4× test compound, 2.4 µL kinase buffer, 5 µL 2× kinase mixture and 2.5 µL 4× ATP solution was added in black 384-well plate. After shaking for 30 s, the plates were incubated for 60 min at room temperature. Add developing reagent solution and shake the plate for 30 s, then incubate for 1 h at room temperature. The Fluorescence intensity per well was read using a fluorescence plate reader. SelectScreen® Kinase Profiling Service used XLfit from IDBS. The dose response curve was curve fit to model number 205 (sigmoidal dose-response model) and inhibition rates were calculated. 50% inhibition was used as a activity threshold. IC50 values were calculated based on curve fitting.

In a further experiment the target is BRD4 (Homo sapiens, UniProt O60885). The experiment in a line: Microscale thermophoresis (MST) assay. Also on record: purchased Abcam. The class given is binding. In general terms: In MST a laser heats a spot of the sample, and binding alters the fluorescence response.

Sequence of STAT2 (P52630 whole entry): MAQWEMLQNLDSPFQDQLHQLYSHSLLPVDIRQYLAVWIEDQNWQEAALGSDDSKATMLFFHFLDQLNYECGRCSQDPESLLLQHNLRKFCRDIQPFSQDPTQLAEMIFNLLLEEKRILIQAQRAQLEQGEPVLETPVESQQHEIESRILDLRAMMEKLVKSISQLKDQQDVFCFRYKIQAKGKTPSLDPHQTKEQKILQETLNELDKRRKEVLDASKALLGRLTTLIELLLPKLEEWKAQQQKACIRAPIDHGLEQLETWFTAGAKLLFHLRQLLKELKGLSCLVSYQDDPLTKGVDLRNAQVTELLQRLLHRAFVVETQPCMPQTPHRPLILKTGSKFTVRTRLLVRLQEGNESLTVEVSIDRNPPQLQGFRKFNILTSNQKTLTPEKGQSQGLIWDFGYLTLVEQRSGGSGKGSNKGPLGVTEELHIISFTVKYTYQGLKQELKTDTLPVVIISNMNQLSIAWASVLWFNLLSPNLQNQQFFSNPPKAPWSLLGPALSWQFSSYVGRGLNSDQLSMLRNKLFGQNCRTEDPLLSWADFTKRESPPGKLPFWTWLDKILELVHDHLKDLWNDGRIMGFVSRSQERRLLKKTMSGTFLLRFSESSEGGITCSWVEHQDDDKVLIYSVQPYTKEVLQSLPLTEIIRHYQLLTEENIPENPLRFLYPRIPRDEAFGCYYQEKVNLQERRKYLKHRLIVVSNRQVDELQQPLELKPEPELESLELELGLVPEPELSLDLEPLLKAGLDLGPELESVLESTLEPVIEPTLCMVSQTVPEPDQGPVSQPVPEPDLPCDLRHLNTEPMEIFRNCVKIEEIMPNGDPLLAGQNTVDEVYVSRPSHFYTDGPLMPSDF
Sequence of BRD2 (P25440 whole entry): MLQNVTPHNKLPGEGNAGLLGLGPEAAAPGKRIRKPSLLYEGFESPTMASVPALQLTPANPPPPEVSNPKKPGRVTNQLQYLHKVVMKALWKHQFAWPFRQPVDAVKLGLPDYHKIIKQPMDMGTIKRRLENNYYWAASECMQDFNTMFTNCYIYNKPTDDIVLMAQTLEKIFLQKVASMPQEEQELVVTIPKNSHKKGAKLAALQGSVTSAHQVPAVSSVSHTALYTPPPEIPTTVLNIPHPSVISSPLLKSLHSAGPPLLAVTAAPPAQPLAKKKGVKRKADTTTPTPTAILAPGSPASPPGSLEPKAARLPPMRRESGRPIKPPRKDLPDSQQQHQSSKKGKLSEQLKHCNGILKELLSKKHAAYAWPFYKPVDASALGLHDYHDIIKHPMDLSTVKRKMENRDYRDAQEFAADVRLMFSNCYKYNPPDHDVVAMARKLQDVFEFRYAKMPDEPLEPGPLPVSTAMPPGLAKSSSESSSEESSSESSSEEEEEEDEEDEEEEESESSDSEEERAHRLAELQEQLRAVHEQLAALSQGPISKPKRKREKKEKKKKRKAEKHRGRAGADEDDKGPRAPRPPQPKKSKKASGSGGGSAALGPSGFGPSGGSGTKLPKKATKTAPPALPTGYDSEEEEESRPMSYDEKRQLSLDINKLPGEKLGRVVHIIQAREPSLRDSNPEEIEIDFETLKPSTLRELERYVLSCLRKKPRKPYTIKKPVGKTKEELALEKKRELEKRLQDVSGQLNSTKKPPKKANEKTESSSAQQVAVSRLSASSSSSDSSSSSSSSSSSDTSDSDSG
Sequence of STAT5a (P42229 whole entry): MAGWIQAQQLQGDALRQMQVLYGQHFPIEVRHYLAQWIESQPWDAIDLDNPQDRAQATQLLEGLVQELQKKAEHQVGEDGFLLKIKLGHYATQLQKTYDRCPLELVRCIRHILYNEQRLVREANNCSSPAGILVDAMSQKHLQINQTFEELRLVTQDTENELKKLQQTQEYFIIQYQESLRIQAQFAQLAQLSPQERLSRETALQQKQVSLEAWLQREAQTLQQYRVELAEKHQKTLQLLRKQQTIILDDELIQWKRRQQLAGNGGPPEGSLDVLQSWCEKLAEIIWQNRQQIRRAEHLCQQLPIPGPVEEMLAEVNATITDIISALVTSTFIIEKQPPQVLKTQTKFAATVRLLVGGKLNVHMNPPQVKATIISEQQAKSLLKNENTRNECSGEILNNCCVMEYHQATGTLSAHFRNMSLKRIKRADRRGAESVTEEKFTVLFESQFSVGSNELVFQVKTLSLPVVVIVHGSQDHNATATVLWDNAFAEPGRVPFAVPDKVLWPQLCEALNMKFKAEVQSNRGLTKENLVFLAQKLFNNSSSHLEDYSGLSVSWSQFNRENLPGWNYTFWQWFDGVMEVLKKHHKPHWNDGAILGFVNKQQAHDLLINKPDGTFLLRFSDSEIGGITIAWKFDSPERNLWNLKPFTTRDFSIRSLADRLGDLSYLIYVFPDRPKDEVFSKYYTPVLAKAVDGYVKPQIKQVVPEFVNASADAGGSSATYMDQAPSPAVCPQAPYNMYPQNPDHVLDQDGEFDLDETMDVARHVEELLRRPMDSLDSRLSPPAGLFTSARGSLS
Description for BRD4: The MST experiments were performed using the Monolith NT.115 instrument. BRD4 and STAT3 proteins were labeled with the Lys labeling kit at the final concentration of 100 nM. The compounds, previously suspended in 100% DMSO, were diluted in a buffer containing 20 mM Tris·HCl (pH 7.5), 100 mM NaCl, and 3 mM DTT, achieving a final DMSO concentration of 5%. The compounds were gradient-diluted in 1:1 dilution and starting from 100 μM. The samples were loaded into MST-standard glass capillaries. All the measurements were performed in triplicate using automatically assigned 50% MST power and 20% LED power. Data analysis was performed using GraphPad Prism 7.0 software.

For the molecule `CCS(=O)(=O)Cc1cnc(Oc2c(F)cc(F)cc2OCCCCOc2ccc(/C=C/c3cc(OC)cc(OC)c3)cc2)c(-c2cc(C)c3c(=O)[nH]ccn23)c1` [BST-4], the Kd (in general, a measure of binding affinity in units of concentration) on BRD2 is over 10000 nM; at STAT2 it was over 10000 nM; on STAT5a, over 10000 nM; at BRD4 (MST) it was 1.46 ± 0.07 nM. Moreover, the IC50 (commonly the concentration needed to halve the response being measured) with CAKI-2 cells (Homo sapiens, CAKI-2, cell growth, 48 h treatment, read-out: IC50 (μM) ± SD CAKI-2) was 0.76 ± 0.05 µM; in the experiment with 769-P cells, 1.68 ± 0.32 µM; in the experiment with A704 cells, 1.07 ± 0.18 µM; in [1], over 10 µM; in the experiment with RCC4 cells it was 2.19 ± 0.64 µM; in the experiment on SLR-23 cells it was 1.52 ± 0.43 µM. For the same molecule, the half-inhibitory concentration (IC50) is over 10 µM in the experiment on PBMCs and over 10000 nM in experiment [2] (read-out: IC50 on panel of 76 human kinases, all kinases of the panel). In addition, the “cell inhibitory rate (%) against CAKI-2 cells” value in the experiment on CAKI-2 cells (all compounds at the same concentration) is reported as “more than 95%”. Moreover, the “tumor growth (tumor volume) in CAKI-2 xenograft” value in the experiment on CAKI-2 xenograft tumors was “significantly inhibited tumor growth”. Also, in experiment [2] (1 µM), the “inhibition of all 76 kinases at 1 µM” value is recorded as “less than 10%”. The “BRD4 binding affinity relative to RVX-208” value on BRD4 (Kd ratio vs RVX-208, MST) was found to be 17 fold.
